Test results reported in article PMC8583042, “New Hybrid Compounds Combining Fragments of Usnic Acid and Thioether Are Inhibitors of Human Enzymes TDP1, TDP2 and PARP1” (International Journal of Molecular Sciences, 2021).

Legend:
[1] = Colorimetric cytotoxicity test, HEK293A Tdp1-/-; assay type: cell-based; conditions: human, HEK293A Tdp1-/- cells; TDP1-/- cell line, intrinsic cytotoxicity (Figure 6)
Source text: In our previous works, we checked the cytotoxic effect of Tpc and the TDP1 inhibitors—monoterpene 3-carene-derived compounds [48, 49] and UA combined with monoterpenoids, measured separately and jointly with Tpc—using a panel of HEK293FT and HEK293A Tdp1 knockout isogenic clones. […] The data on the HEK293FT mutants were of low reproducibility, which is why we decided to change the basic cell line to HEK293A [49]. In this work, we created new PARP1-/- HEK293A cells using the CRISPR–Cas9 approach (Figure S27). […] We checked the intrinsic cytotoxicity of the leader compound (10a) on the HEK293 wild type and TDP1-/- and PARP1-/- cell lines using a colorimetric test (Figure 6). […] There was no difference between the WT and mutant cells.
Cytotoxicity of the compounds was examined against human cell lines HEK293A (human embryonic kidney)—WT, TDP1 deficient (Tdp1-/-), PARP1 deficient (PARP1-/-), and HeLa (cervical cancer) using an EZ4U colorimetric test (Biomedica, Vienna, Austria). […] After the formation of a 30–50% monolayer, the tested compounds were added to the medium, and the cell culture was monitored for 3 days. […] The compound concentration that caused 50% cell growth inhibition was determined using OriginPro 8.6.0 software (OriginLab, Northampton, MA, USA). […]

[2] = EZ4U colorimetric cytotoxicity test, HeLa; assay type: cell-based, human; conditions: human, HeLa cells; intrinsic cytotoxicity, compound alone, 3 days
Source text: The low intrinsic cytotoxicity of the additional drug component in the clinically used anticancer cocktails with traditional drugs is very important for treatment. This approach in chemotherapy can reduce the potential resulting toxic load on the body in the case of a combined action of these inhibitors on the activity of several targets. […] The effects of the tested compounds on cell survival are shown on Figure 4 and the CC50 values for three cell lines are shown in Table 1. The intrinsic cytotoxicity of a number of the studied compounds is quite high, namely, they have close IC50 values against the TDP1 and CC50 values on one or several studied cell lines. Most of the compounds generally were more toxic for the HEK293FT and HeLa cell lines than for the HEK293A cell line (Table 1 and Figure 4). The cytotoxicity of the three leader compounds, 7g, 10a, and 7h, was quite high. […] Compound 10b was one of the least toxic among the ten tested compounds.
Cytotoxicity of the compounds was examined against human cell lines HEK293A (human embryonic kidney)—WT, TDP1 deficient (Tdp1-/-), PARP1 deficient (PARP1-/-), and HeLa (cervical cancer) using an EZ4U colorimetric test (Biomedica, Vienna, Austria). The HEK293A cell line was obtained from Thermo Fisher Scientific (Waltham, MA, USA), and the HeLa cell line was obtained from the Russian Cell Culture Collection (RCCC) Institute of Cytology RAS, St. Petersburg, Russia. The cells were grown in DMEM/F12 medium (Gibco, Thermo Fisher Scientific, Waltham, MA, USA), with 1x GlutaMAX (Gibco, Thermo Fisher Scientific, Waltham, MA, USA), 50 IU/mL penicillin, 50 μg/mL streptomycin (MP Biomedicals), and in the presence of 10% fetal bovine serum (Biolot, Saint-Petersburg, Russia) in a 5% CO2 atmosphere. Cells were grown in the presence of 1% DMSO in the control wells. After the formation of a 30–50% monolayer, the tested compounds were added to the medium, and the cell culture was monitored for 3 days. The values were normalized to their own control in each case. At least three independent experiments were carried out. The 50% cytotoxic concentration (CC50) was defined as the compound concentration that reduced the cell viability by 50% when compared to the untreated controls. The compound concentration that caused 50% cell growth inhibition was determined using OriginPro 8.6.0 software (OriginLab, Northampton, MA, USA). The measurements were carried out in three independent experiments.

| Structure (SMILES) | CC50 at 3 days [1] | CC50 at 3 days [2] |
| --- | --- | --- |
| CC(=O)C1=C(O)C=C2Oc3c(C(=O)C[S+]([O-])c4nc5ccccc5s4)c(O)c(C)c(O)c3[C@@]2(C)C1=O (stereo partly drawn) [10a, (2R)-4-acetyl-10-[2-(1,3-benzothiazole-2-sulfinyl)acetyl]-5,11,13-trihydroxy-2,12-dimethyl-8-oxatricyclo[7.4.0.0^2,7]trideca-1(13),4,6,9,11-pentaen-3-one] | 15 to 20 µM | 15 ± 1 µM |
| CC(=O)c1c(O)c(C)c(O)c2c1OC1=CC(=O)C(C(C)=O)C(=O)C12C (stereo not drawn) [UA, usnic acid] |  | 20 ± 10 µM |
